Experimental data from patent US20260165323A1, “USE OF STROBILURIN TYPE COMPOUNDS FOR COMBATING PHYTOPATHOGENIC FUNGI CONTAINING AN AMINO ACID SUBSTITUTION F129L IN THE MITOCHONDRIAL CYTOCHROME B PROTEIN CONFERRING RESISTANCE TO QO […]” (priority 2022, published 2026).

Assays:
Format in all cases: in vivo
Puccinia recondita [1] = experiment: Use Example 3: curative control of brown rust on wheat (PUCCRT K4); conditions: % diseased leaf area
Outline: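 Wheat seedlings inoculated with Puccinia recondita spores, held 24 h at 95–99% RH, 20–24° C in dark, then 3 days in greenhouse before spraying to run-off (curative). Compound in acetone/DMSO–Wettol–water. After 5–7 further days at 20–24° C, 65–70% RH, % diseased leaf area scored visually.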

[2] = test system: Phakopsora pachyrhizi containing the amino acid substitution F129L in the mitochondrial cytochrome b protein; experiment: Use Example 1: protective control of soybean rust on soybeans (PHAKPA P2); conditions: inoculated 2 days after spraying, % diseased leaf area
Outline: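 Soybean seedling leaves sprayed to run-off with compound in acetone/DMSO–Wettol–water at the stated concentration, kept 2 days at 23-27° C, then inoculated with Qo-inhibitor-resistant F129L P. pachyrhizi. After 24 h at ~95% RH, 20-24° C, and up to 14 days in greenhouse, % diseased leaf area scored visually.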

[3] = test system: Phakopsora pachyrhizi containing the amino acid substitution F129L in the mitochondrial cytochrome b protein; experiment: Use Example 2: protective control of soybean rust on soybeans (PHAKPA P6); conditions: inoculated six days after spraying, % diseased leaf area
Outline: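 Compound in acetone and/or DMSO with Wettol (99:1), diluted with water, was sprayed to run-off on potted soybean seedlings. After six days at 23–27°C and 60–80% RH, plants were inoculated with a Qo-resistant F129L strain and held 24 h at about 95% RH. Percent diseased leaf area was scored visually after up to 14 days.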

Puccinia recondita [4] = experiment: Use Example 4: preventative control of brown rust on wheat (PUCCRT P7); conditions: inoculated seven days after spraying, % diseased leaf area
Outline: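 First two leaves of potted wheat seedlings sprayed to run-off with compound in acetone/DMSO–emulsifier–water, then inoculated with Puccinia recondita spores seven days later. Plants held 24 h dark at 95–99% RH and 20–24 °C, then 9–11 days in greenhouse; diseased leaf area (%) scored visually.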

Row | SMILES | % PUCCRT Disease level K4 at 4 ppm (Puccinia recondita [1]) [%] | % PUCCRT Disease level K4 at 16 ppm (Puccinia recondita [1]) [%] | % PHAKPA (F129L) Disease level P2 at 4 ppm [2] [%] | % PHAKPA (F129L) Disease level P2 at 16 ppm [2] [%] | % PHAKPA (F129L) Disease level P6 at 4 ppm [3] [%] | % PHAKPA (F129L) Disease level P6 at 16 ppm [3] [%] | % PUCCRT Disease level P7 at 4 ppm (Puccinia recondita [4]) [%] | % PUCCRT Disease level P7 at 16 ppm (Puccinia recondita [4]) [%]
1 | CO/C=C(/C(=O)OC)c1cccc(Cl)c1CO/N=C(\COC)c1ccc(F)cc1Cl [compound 93] | 83 | 19 | 13 | 1 | 43 | 15 | 53 | 16
2 | CNC(=O)/C(=N/OC)c1cccc(Cl)c1CO/N=C(\COC)c1ccc(F)c(F)c1 [compound 97] | 9 | 3 | 3 | 0 | 17 | 1 | 23 | 4
3 | CNC(=O)/C(=N/OC)c1cccc(Cl)c1CO/N=C(\COC)c1cccc(Cl)c1F [compound 99] | 82 | 10 | 21 | 1 | 17 | 2 | 42 | 7
4 | CNC(=O)/C(=N/OC)c1cccc(Cl)c1CO/N=C(\COC)c1ccc(Cl)cc1F [compound 100] | 78 | 6 | 24 | 2 | 20 | 3 | 12 | 4
5 | CO/C=C(/C(=O)OC)c1cccc(Cl)c1CO/N=C(\COC)c1ccc(F)c(F)c1F [compound 101] | 35 | 3 | 2 | 0 | 6 | 0 | 54 | 3
6 | CNC(=O)/C(=N/OC)c1cccc(Cl)c1CO/N=C(\COC)c1c(F)cc(Cl)cc1F [compound 102] | 80 | 36 | 21 | 1 | 16 | 2 | 32 | 6
7 | CO/C=C(/C(=O)OC)c1cccc(Cl)c1CO/N=C(\COC)c1cc(Cl)ccc1F [compound 105] | 42 | 5 | 18 | 2 | 13 | 0 | 44 | 4
8 | CO/C=C(/C(=O)OC)c1cccc(Cl)c1CO/N=C(\COC)c1ccc(Cl)cc1F [compound 106] | 28 | 4 | 14 | 1 | 8 | 1 | 19 | 2
9 | CNC(=O)/C(=N/OC)c1cccc(Cl)c1CO/N=C(\COC)c1cc(Cl)ccc1F [compound 107] | 80 | 9 | 29 | 3 | 19 | 3 | 41 | 7
10 | CNC(=O)/C(=N/OC)c1cccc(Cl)c1CO/N=C(\COC)c1ccc(Cl)c(F)c1 [compound 109] | 63 | 4 | 13 | 2 | 37 | 4 | 5 | 0
11 | CO/C=C(/C(=O)OC)c1cccc(Cl)c1CO/N=C(\COC)c1ccc(Cl)c(F)c1 [compound 110] | 70 | 4 | 1 | 0 | 15 | 0 | 41 | 3
12 | CO/C=C(/C(=O)OC)c1cccc(Cl)c1CO/N=C(\COC)c1c(F)ccc(F)c1F [compound 113] | 77 | 13 | 1 | 0 | 10 | 1 | 70 | 10
13 | CO/C=C(/C(=O)OC)c1cccc(Cl)c1CO/N=C(\COC)c1cccc(C#N)c1 [compound 116] | 5 | 0 | 31 | 3 | 48 | 11 | 15 | 3
14 | CNC(=O)/C(=N/OC)c1cccc(Cl)c1CO/N=C(\COC)c1cccc(C#N)c1 [compound 117] | 18 | 0 | 59 | 5 | 34 | 8 | 14 | 1
15 | CNC(=O)/C(=N/OC)c1cccc(Cl)c1CO/N=C(\COC)c1cccc(OC)c1 [compound 119] | 42 | 2 | 32 | 0 | 36 | 5 | 13 | 1
16 | CO/C=C(/C(=O)OC)c1cccc(Cl)c1CO/N=C(\COC)c1cccc(OC)c1 [compound 121] | 5 | 1 | 4 | 0 | 6 | 0 | 32 | 4
17 | CO/C=C(/C(=O)OC)c1cccc(Cl)c1CO/N=C(\COC)c1ccccc1C [compound 123] | 72 | 21 | 41 | 2 | 38 | 7 | 77 | 33
18 | CO/C=C(/C(=O)OC)c1cccc(Cl)c1CO/N=C(\COC)c1ccccn1 [compound 129, Methyl (E)-2-[3-chloro-2-[[(Z)-[2-methoxy-1-(2-pyridyl)ethylidene]amino]oxymethyl]phenyl]-3-methoxy-prop-2-enoate] | 11 | 1 | 1 | 0 | 4 | 1 |  | 18
19 | CO/C=C(/C(=O)OC)c1cccc(Cl)c1CO/N=C(\COC)c1ccc(F)cn1 [compound 131, Methyl (E)-2-[3-chloro-2-[[(Z)-[1-(5-fluoro-2-pyridyl)-2-methoxy-ethylidene]amino]oxymethyl]phenyl]-3-methoxy-prop-2-enoate] | 2 | 0 | 1 | 0 | 1 | 0 | 32 | 1
